Test results reported in US20240150303A1, “DIAMINOTRIAZINE COMPOUNDS” (BASF SE, priority 2021, published 2024).
Values joined by “and” are separate entries in the source; they are usually repeats but may differ in a detail not shown here. Equal entries are not always repeated.

Experiments:
Assay in all cases: greenhouse pre-emergence herbicidal test
Assay type in all cases: in vivo
Echinocloa crus-galli = tested on: Echinocloa crus-galli
Source text: (§1) The seeds of the test plants were sown separately for each species. For the pre-emergence treatment, the active ingredients, which had been suspended or emulsified in water, were applied directly after sowing by means of finely distributing nozzles. The containers were irrigated gently to promote germination and growth and subsequently covered with transparent plastic hoods until the plants had rooted. This cover caused uniform germination of the test plants, unless this had been impaired by the active ingredients. […] The test period extended over 2 to 4 weeks. During this time, the plants were tended, and their response to the individual treatments was evaluated. Evaluation was carried out using a scale from 0 to 100. 100 means no emergence of the plants, or complete destruction of at least the aerial moieties, and 0 means no damage, or normal course of growth. A moderate herbicidal activity is given at values of at least 60, a good herbicidal activity is given at values of at least 70, and a very good herbicidal activity is given at values of at least 85. The plants used in the greenhouse experiments were of the following species: [table]

Setaria faberi = tested on: Setaria faberi
Source text: as §1

Amaranthus retroflexus = tested on: Amaranthus retroflexus
Source text: as §1

Abutilon theophrasti = tested on: Abutilon theophrasti
Source text: The culture containers used were plastic flowerpots containing loamy sand with approximately 3.0% of humus as the substrate. The seeds of the test plants were sown separately for each species.
For the pre-emergence treatment, the active ingredients, which had been suspended or emulsified in water, were applied directly after sowing by means of finely distributing nozzles.
The containers were irrigated gently to promote germination and growth and subsequently covered with transparent plastic hoods until the plants had rooted. This cover caused uniform germination of the test plants, unless this had been impaired by the active ingredients.
Depending on the species, the plants were kept at 10-25° C. or 20-35° C., respectively.
The test period extended over 2 to 4 weeks. During this time, the plants were tended, and their response to the individual treatments was evaluated.
Evaluation was carried out using a scale from 0 to 100. 100 means no emergence of the plants, or complete destruction of at least the aerial moieties, and 0 means no damage, or normal course of growth. A moderate herbicidal activity is given at values of at least 60, a good herbicidal activity is given at values of at least 70, and a very good herbicidal activity is given at values of at least 85.
The plants used in the greenhouse experiments were of the following species: […]

| Compound | herbicidal activity (Echinocloa crus-galli; 62 g/ha) [%] | herbicidal activity (Setaria faberi; 62 g/ha) | herbicidal activity (Amaranthus retroflexus; 62 g/ha) [%] | also measured |
| --- | --- | --- | --- | --- |
| COc1c(F)cc(Br)c(Cl)c1Nc1nc(N)nc(C(C)(C)F)n1 [Example 58] | 100 | 100% | 100 | herbicidal activity (Echinocloa crus-galli; 62.5 g/ha): 100%; herbicidal activity (Setaria faberi; 62.5 g/ha): 100%; herbicidal activity (Abutilon theophrasti; 62.5 g/ha): 100% |
| COc1c(F)ccc(Cl)c1Nc1nc(N)nc(C(C)(C)F)n1 [Example 49] | 100 | – | 100 | herbicidal activity (Echinocloa crus-galli; 62.5 g/ha): 100%; herbicidal activity (Amaranthus retroflexus; 62.5 g/ha): 100%; herbicidal activity (Abutilon theophrasti; 62 g/ha): 100%; herbicidal activity (Abutilon theophrasti; 62.5 g/ha): 100% |
| CCC#CCOc1c(F)cc(F)c(Cl)c1Nc1nc(N)nc(C(C)(C)F)n1 [Example 26] | 100 | 100% | 100 | herbicidal activity (Echinocloa crus-galli; 250 g/ha): 100%; herbicidal activity (Setaria faberi; 250 g/ha): 100%; herbicidal activity (Amaranthus retroflexus; 250 g/ha): 100% |
| COc1c(Br)cc(F)c(C)c1Nc1nc(N)nc(C(C)(F)CCl)n1 (stereo not shown) [Example 75] | 100 | 100% | 100 | – |
| COc1c(C)ccc(C)c1Nc1nc(N)nc(C(C)(C)OC)n1 [Example 17] | – | – | – | herbicidal activity (Echinocloa crus-galli; 250 g/ha): 100%; herbicidal activity (Amaranthus retroflexus; 250 g/ha): 100%; herbicidal activity (Abutilon theophrasti; 250 g/ha): 100% |
| COc1c(F)ccc(Cl)c1Nc1nc(N)nc(C(C)(C)OC)n1 [Example 87] | 100 | 100% | 100 | – |
| Cc1c(Br)cc(F)c(OCc2ccccc2)c1Nc1nc(N)nc(C(C)(C)F)n1 [Example 6] | – | – | – | herbicidal activity (Echinocloa crus-galli; 125 g/ha): 100%; herbicidal activity (Echinocloa crus-galli; 250 g/ha): 85%; herbicidal activity (Setaria faberi; 125 g/ha): 100%; herbicidal activity (Setaria faberi; 250 g/ha): 100%; herbicidal activity (Abutilon theophrasti; 125 g/ha): 100%; herbicidal activity (Abutilon theophrasti; 250 g/ha): 100% |
| COc1c(C)ccc(C)c1Nc1nc(N)nc(C(C)F)n1 (stereo not shown) [Example 18] | – | – | – | herbicidal activity (Echinocloa crus-galli; 62.5 g/ha): 100%; herbicidal activity (Echinocloa crus-galli; 250 g/ha): 100%; herbicidal activity (Amaranthus retroflexus; 62.5 g/ha): 100%; herbicidal activity (Amaranthus retroflexus; 250 g/ha): 100%; herbicidal activity (Abutilon theophrasti; 62.5 g/ha): 100%; herbicidal activity (Abutilon theophrasti; 250 g/ha): 100% |
| COc1c(F)ccc(C)c1Nc1nc(N)nc(C(C)(C)F)n1 [Example 16] | 100 | – | 100 | herbicidal activity (Echinocloa crus-galli; 250 g/ha): 100%; herbicidal activity (Amaranthus retroflexus; 250 g/ha): 100%; herbicidal activity (Abutilon theophrasti; 62 g/ha): 100%; herbicidal activity (Abutilon theophrasti; 250 g/ha): 100% |
| CC#CCOc1c(F)ccc(Cl)c1Nc1nc(N)nc(C(C)(C)OC)n1 [Example 90] | 100 | 100% | 100 | – |
| CC#CCOc1c(F)ccc(Cl)c1Nc1nc(N)nc(C(C)(F)F)n1 [Example 88] | 100 | 100% | 100 | – |
| CC(C)(F)c1nc(N)nc(Nc2c(Cl)c(F)cc(F)c2OCC#CC2CC2)n1 [Example 27] | 100 | 100% | 100 | herbicidal activity (Setaria faberi; 31 g/ha): 100%; herbicidal activity (Amaranthus retroflexus; 31 g/ha): 100% |
| COc1c(Cl)ccc(Cl)c1Nc1nc(N)nc(C(C)(F)F)n1 [Example 72] | 100 | 80% and 100% | 100 | – |
| C#CCOc1c(F)cc(C)c(Cl)c1Nc1nc(N)nc(C(C)(C)F)n1 [Example 56] | 100 | 100% | – | herbicidal activity (Echinocloa crus-galli; 62.5 g/ha): 90%; herbicidal activity (Setaria faberi; 62.5 g/ha): 100%; herbicidal activity (Abutilon theophrasti; 62 g/ha): 100%; herbicidal activity (Abutilon theophrasti; 62.5 g/ha): 90% |
| COc1c(Br)cc(F)c(Cl)c1Nc1nc(N)nc(C2(F)CC2)n1 [Example 42] | – | – | – | herbicidal activity (Echinocloa crus-galli; 31 g/ha): 100%; herbicidal activity (Setaria faberi; 31 g/ha): 100%; herbicidal activity (Amaranthus retroflexus; 31 g/ha): 100% |
| COc1c(Br)cc(F)c(C)c1Nc1nc(N)nc(C(C)(C)F)n1 [Example 80] | 100 | 100% | 100 | – |
| COc1c(Cl)cc(F)c(C)c1Nc1nc(N)nc(C2(F)CCCC2)n1 [Example 73] | 100 | 100% | 100 | – |
| COc1c(Br)cc(Cl)c(C)c1Nc1nc(N)nc(C(C)F)n1 (racemic) [Example 96] | 70 | 75% | – | – |
| CC#CCOc1c(F)ccc(Cl)c1Nc1nc(N)nc(C(C)(F)CBr)n1 (stereo not shown) [Example 91] | 100 | 100% | 100 | – |
| COc1c(Br)cc(F)c(C)c1Nc1nc(N)nc(C(C)(F)CBr)n1 (stereo not shown) [Example 76] | 100 | 100% | 100 | – |

| Compound | herbicidal activity (Echinocloa crus-galli; 62 g/ha) [%] | herbicidal activity (Setaria faberi; 62 g/ha) | herbicidal activity (Amaranthus retroflexus; 62 g/ha) [%] | also measured |
| --- | --- | --- | --- | --- |
| Nc1nc(Nc2c(Cl)cccc2OC(F)F)nc(C2(F)CCCC2)n1 [Example 94] | 100 | 100% | 100 | – |
| COc1c(Br)cc(Cl)c(C)c1Nc1nc(N)nc(C(C)(F)CBr)n1 (racemic) [Example 99] | – | 100% | 100 | herbicidal activity (Abutilon theophrasti; 62 g/ha): 100% |
| CCC(C)(F)c1nc(N)nc(Nc2c(C)c(F)cc(Br)c2OC)n1 (stereo not shown) [Example 79] | – | 100% | 100 | herbicidal activity (Abutilon theophrasti; 62 g/ha): 100% |
| C#CCOc1c(Br)cc(F)c(C)c1Nc1nc(N)nc(C(C)(C)F)n1 [Example 22] | 100 | 100% | 100 | herbicidal activity (Echinocloa crus-galli; 62.5 g/ha): 85%; herbicidal activity (Setaria faberi; 62.5 g/ha): 100%; herbicidal activity (Amaranthus retroflexus; 62.5 g/ha): 85% |
| COc1c(Cl)cc(Cl)c(C)c1Nc1nc(N)nc(C(C)(C)F)n1 [Example 34] | – | – | – | herbicidal activity (Echinocloa crus-galli; 62.5 g/ha): 100%; herbicidal activity (Amaranthus retroflexus; 62.5 g/ha): 100%; herbicidal activity (Abutilon theophrasti; 62.5 g/ha): 100% |
| CC#CCOc1c(Cl)cc(C)c(Cl)c1Nc1nc(N)nc(C(C)(C)F)n1 [Example 65] | 100 | 100% | – | herbicidal activity (Abutilon theophrasti; 62 g/ha): 100% |
| COc1c(Br)cc(C)c(Cl)c1Nc1nc(N)nc(C(C)(C)F)n1 [Example 83] | 100 | 100% | 100 | – |
| CCOc1c(Br)cc(F)c(C)c1Nc1nc(N)nc(C(C)(C)F)n1 [Example 23] | 100 | 100% | 100 | herbicidal activity (Echinocloa crus-galli; 62.5 g/ha): 100%; herbicidal activity (Setaria faberi; 62.5 g/ha): 100%; herbicidal activity (Amaranthus retroflexus; 62.5 g/ha): 100% |
| COc1c(Br)cc(F)c(C)c1Nc1nc(N)nc(C2(F)CCCC2)n1 [Example 78] | 100 | 100% | 100 | – |
| CC#CCOc1c(Br)cc(C)c(Cl)c1Nc1nc(N)nc(C(C)(C)F)n1 [Example 82] | 100 | 100% | 100 | – |
| COc1c(F)ccc(Cl)c1Nc1nc(N)nc(C(C)(F)CBr)n1 (stereo not shown) [Example 86] | 100 | 100% | 100 | – |
| CCC(C)(F)c1nc(N)nc(Nc2c(C)c(F)cc(Cl)c2OC)n1 (stereo not shown) [Example 81] | 100 | 100% | – | herbicidal activity (Abutilon theophrasti; 62 g/ha): 100% |
| COc1c(Br)cc(F)c(Cl)c1Nc1nc(N)nc(C(C)(C)F)n1 [Example 29] | – | 100% | 100 | herbicidal activity (Setaria faberi; 31 g/ha): 100%; herbicidal activity (Amaranthus retroflexus; 31 g/ha): 100%; herbicidal activity (Abutilon theophrasti; 31 g/ha): 100%; herbicidal activity (Abutilon theophrasti; 62 g/ha): 100% |
| CC#CCOc1c(F)cc(F)c(Cl)c1Nc1nc(N)nc(C(C)(C)F)n1 [Example 25] | 100 | 100% | 100 | herbicidal activity (Echinocloa crus-galli; 250 g/ha): 100%; herbicidal activity (Setaria faberi; 250 g/ha): 100%; herbicidal activity (Amaranthus retroflexus; 250 g/ha): 100% |
| COc1c(Br)cc(F)c(C)c1Nc1nc(N)nc(C(C)(F)F)n1 [Example 77] | 100 | 100% | 100 | – |
| COc1c(Br)cc(F)c(C)c1Nc1nc(N)nc(C(C)F)n1 (stereo not shown) [Example 74] | 100 | 100% | 100 | – |
| C#CCOc1c(F)cc(F)c(Cl)c1Nc1nc(N)nc(C(C)(C)F)n1 [Example 28] | 100 | 100% | 100 | herbicidal activity (Echinocloa crus-galli; 62.5 g/ha): 100%; herbicidal activity (Setaria faberi; 62.5 g/ha): 100%; herbicidal activity (Amaranthus retroflexus; 62.5 g/ha): 100% |
| COc1c(F)ccc(Cl)c1Nc1nc(N)nc(C(C)(F)F)n1 [Example 85] | 100 | 98% | – | herbicidal activity (Abutilon theophrasti; 62 g/ha): 85% |
| CC#CCOc1c(F)ccc(Cl)c1Nc1nc(N)nc(C(F)C(C)C)n1 (stereo not shown) [Example 89] | 100 | 100% | 100 | – |
